Test results: patent US20190330167A1, “ACTIVATORS OF HIV LATENCY” (priority 2016, published 2019)
Read-outs that look alike come from different tables or passages of the source.

Columns and labels:
[1] = system: HIV-1 long terminal repeat (LTR)-driven luciferase reporter gene in FlipIn.FM HEK293 cells; assay: cells; format: cell-based; details: for EC50: Human immunodeficiency virus 1, HEK293, HIV-LTR driven latent reporter, 11-point, 2-fold dilution series, highest concentration 40 μM, read-out: Latent reporter Av EC50; for fold change in HIV-1 gene expression over the unstimulated baseline: FlipIn.FM model, alone at 10 μM and in combination, 48 hrs post treatment
Experimental: FIG. 44. […] The FlipIn.FM model of HIV-1 latency was treated with JQ1 (+) and DP#14 (Compound 7) alone at 10 μM and in combination, and the HIV-1 gene expression measured 48 hrs post treatment. Error bars represent standard deviation of n=3 experiments. OPTI represents media alone, without DP#14.
FIG. 46. […] The FlipIn.FM model of HIV-1 latency was treated with PFI-1 and DP#14 alone at 10 μM and in combination, and the HIV-1 gene expression measured 48 hrs post treatment. Error bars represent standard deviation of n=3 experiments. OPTI represents media alone, without DP#14.
Explicitly, HEK293 derived FlipIn-FM and FlipIn-RV dual reporter cells each include a single stable HIV-1 long terminal repeat (LTR)-driven luciferase reporter genes, with a second complimentary non-HIV (off-target) luciferase reporter. These cell lines model post integration latency and read-through transcription by expressing a low level of HIV-1 Tat protein via a native Internal Ribosome Entry Site (IRES) found within Tat, from a chimeric cellular-tat gene cassette. FlipIn-FM and FlipIn-RV clones were chosen for low basal levels of LTR activity and high responsiveness to Tat as well as many Latency Reversing Agents (LRAs).
The dual reporter cell lines contain three stably integrated constructs that together allow for detection of novel LRAs, capable of potent and specific HIV reactivation. The FlipIn.FM line contains a proviral LTR-driven nef/CBR reporter fusion gene, allowing for detection of viral gene expression. A second CMV-driven CBG luciferase reporter allows for detection of off target drug effects, including non-specific activation and drug toxicity. The third construct contains the first coding exon of HIV-1 tat, within human Growth Hormone (hGH) as a chimeric gene, expressing HIV-1 Tat protein from an IRES mechanism that underlies the tat exon. This construct models read-through transcription and the low level of Tat protein expression that occurs during post integration latency. The counter screening reverse cell line, FlipIn.RV, contains the same three components with the Click Beetle Luciferase genes in the opposite orientation (LTR-CBG and CMV-CBR) for counter screening.
Compounds were evaluated in an 11-point titration using normal CMV-CBG/LTR-CBR reporter cell line and an 11 point reverse CMV-CBR/LTR-CBG reporter cell line.
The FlipIn cell lines were therefore designed with a dual purpose, to detect novel compounds that reactivate HIV-1 and to also screen out compounds that behaved in a largely non-specific manner. To achieve the latter, the cell lines contain an “off target” reporter gene construct, driven by the unrelated CMV-IE promoter, that allows for the detection of drug mediated off target effects including global gene activation as well as possible toxicity.
The HIV-LTR driven latent reporter gene identifies the HIV-specific activation, and the term “global reporter” is interchangeable with “off target reporter” and refers to the unrelated CMV-IE promoter driven reporter gene, which is used as a surrogate for global gene activation. […] The highest concentration tested here was 40 μM.

[2] = system: HIV-1 gene expression in J.Lat10.6 latently infected T-cell line; assay: cells; format: cell-based; details: for IC50: Human immunodeficiency virus 1, J-Lat 10.6, 48 h, read-out: IC50 for reactivation of HIV-1 gene expression; for percent of the cells treated with reactivated HIV-1 gene expression: J.Lat10.6 model, alone at 10 μM and in combination, 48 hrs post treatment
Experimental: The J.Lat10.6 latently infected T-cell line was treated with 4 compounds of the present invention, DP#6 (Compound 41), DP#14 (Compound 7), DP#18 (Compound 65), and DP#19 (Compound 73) and reactivated for 48 hrs. HIV-1 reactivation was measured by flowcytometry for GFP expression. Error bars represent standard deviation of n=3 experiments.
FIG. 45. […] The J.Lat10.6 model of HIV-1 latency was treated with JQ1 (+) and DP#14 (Compound 7) alone at 10 μM and in combination, and the HIV-1 gene expression measured 48 hrs post treatment. Error bars represent standard deviation of n=3 experiments. OPTI represents media alone, without DP#14.
FIG. 47. […] The J.Lat10.6 model of HIV-1 latency was treated with PFI-1 and DP#14 alone at 10 μM and in combination, and the HIV-1 gene expression measured 48 hrs post treatment. Error bars represent standard deviation of n=3 experiments. OPTI represents media alone, without DP#14.
Compounds were also evaluated in a dose ranging titration with HIV latently infected cell lines (J.Lat 6.3 and 10.6). The specificity of the selected compounds in these cell line models, were measured by inserting a CMV-DS.Red reporter into these cells to co-ordinately measure HIV specific LTR-Green fluorescent protein and non-specific DS.Red expression during FACS analysis.
The J.Lat model of HIV-1 latency is a well-established model used widely and is described in detail in the following paper:
HIV reproducibly establishes a latent infection after acute infection of T cells in vitro, Eric Verdin et al, The EMBO Journal Vol. 22 No. 8 pp 1868-1877, 2003

J.Lat10.6 T-cell line = assay: Dose dependent toxicity in the J.Lat model; format: cell-based; details: for concentration above which notable toxicity: dose dependent toxic effect
[3] = system: latent HIV in resting memory CD4+ T cells isolated by leukapheresis from HIV+ donors on antiretroviral therapy; format: cell-based, HIV-1; details: 72 hrs
Source text: FIG. 41a. […] Resting memory CD4+ T cells isolated by leukapheresis from HIV+ donors on antiretroviral therapy were reactivated for 72 hrs using known LRAs including vorinostat (Vor) also known as suberanilohydroxamic acid, another hydroxamic acid panobinostat (Pan), and the depsipeptide Romidepsin (Rom) that are all HDACi, together with JQ1 (+) which is a thienotriazolodiazepine known to inhibit the BET family of bromodomain proteins including BRD2, BRD3, and BRD4, and compared with compounds according to the present invention DP#6 (Compound 41), DP#14 (Compound 7), and DP#16 (Compound 64).
FIG. 41c. […] Resting memory CD4+ T cells isolated by leukapheresis from HIV+ donors on antiretroviral therapy were reactivated for 72 hrs using known (vorinostat, Vor; panobinostat, Pan; romidepsin, Rom; and JQ1 (+)) and compounds according to the present invention (DP#6 (Compound 41), DP#14 (Compound 7), and DP#16 (Compound 64)).
FIG. 42c. […] Resting memory CD4+ T cells isolated by leukapheresis from HIV+ donors on antiretroviral therapy were reactivated for 72 hrs using known (JQ1 (+)) and compounds according to the present invention (DP#14 (Compound 7)) alone and in combination, and HIV-1 RNA detected through qPCR.
Total peripheral blood mononuclear cells (PBMC) were stored frozen in liquid nitrogen and prior to use, vials of frozen cells (0.5×10^8 PBMCs/vial or 1×10^8 PBMCs/vial) were quick thawed in a 42° C. water bath. Cells were promptly transferred to a 15 mL tube with 5 mL FBS dropwise then, then 6 mL of RF10 was added. Cells were pelleted at 300 g for 10 min at room temperature. Following aspiration, the cells were resuspended in RF10, pooled into a 50 mL tube which was topped up with RF10. PBMC were pelleted again at 300 g for 10 min at room temperature. Following aspiration, the cells were resuspended in PBS(−/−) and counted. CD4+ T cells were then isolated from 4×10^8 PBMCs that were pelleted and resuspended in PBS(−/−) at 1×10^7 cells/40 μL. 10 μL of CD4+ T cell Biotin-Antibody cocktail (Miltenyi Biotec) for every 1×10^7 cells was added and the mix refrigerated for 5 min. 30 μL of PBS(−/−) for every 1×10^7 cells was added, and 20 μL of the CD4+ T cell MicroBeads for every 1×10^7 cells was added and the mix refrigerated for 10 min. Unlabelled CD4+ T cells were then isolated by negative selection using magnetic separation. CD4+ T cells were then counted before being diluted to 4×10^6 cells/500 μL in RF10 for each condition and seeded into a 48 well plate.
Latent HIV was reactivated in the presence of the HIV integrase inhibitor Raltagravir (Ral) to prevent any further rounds of infection. Ral was made to [2 μM] in RF10+IL-2 (2 U/mL), and used to make 1 mL preparation of each drug up at [×2]. 500 μL of the [×2 Ral/IL-2/drug] was then added to the appropriate wells containing cells. Cells were transported to PC3 and incubated for 72 hrs.
Following reactivation, 800 μL of cell supernatant was transferred to labeled 1.5 mL screwcap tubes, pelletted at 800 g for 10 min then transferred to a second set of tubes and frozen for possible use at a later date. 800 μL of PBS(−/−) was added to each well to mix the cells and 50 μL of cells transferred to another set of tubes for live/dead staining and flow cytometry. Cells were pelleted at 400 g for 10 min, the media aspirated and cells resuspended in 100 μL of a [×1] APC-cy7 live/dead stain (Life technologies).

[4] = normalized between unstimulated baseline and PMA positive control as 100%, concentration not given

| Structure (SMILES) | EC50 [1] [nM] | IC50 [2] [nM] | induction of HIV-1 gene expression, % of the normalized value [3, 4] [%] | also measured |
| --- | --- | --- | --- | --- |
| Cc1cnc(NC(=O)N2CCN(c3cnc(Cl)c(Cl)c3)CC2)s1 [Compound 73] | 280 | < 110 | – | concentration above which notable toxicity (J.Lat10.6 T-cell line): > 156 nM |
| O=C(CCCCCCC(=O)Nc1ccccc1)NO [Vorinostat, suberanilohydroxamic acid, reference compound] | – | – | 58 | – |
| Cc1ccc(N2CCN(C(=O)Nc3ncc(Cl)s3)CC2)cc1Cl [Compound 64] | 220 | – | – | activation of HIV-1 gene expression in leukapheresis samples ([3]; at 100 nM, n=4 or n=5 donors): activation in only one patient |
| COc1ccccc1S(=O)(=O)Nc1ccc2c(c1)CN(C)C(=O)N2 [PFI-1, reference compound] | – | – | – | fold change in HIV-1 gene expression over the unstimulated baseline [1]: 3.6 fold; percent of the cells treated with reactivated HIV-1 gene expression [2]: 20.6% |
| Cc1ccc(N2CCN(C(=O)Nc3ncc(C#N)s3)CC2)cc1Cl [Compound 65] | 330 | 650 | – | concentration above which notable toxicity (J.Lat10.6 T-cell line): above 1.25 μM |
| Cc1cnc(NC(=O)CCCOc2ccccc2)s1 [Compound 41] | 14000 | ~16500 | – | dose dependent toxicity (J.Lat10.6 T-cell line; dosed as high as 40 μM): no such toxicity; induction of HIV-1 gene expression, % of the normalized value ([3]; at 5 μM, normalized between unstimulated baseline and PMA as 100%): 25% |
| C/C=C1\NC(=O)[C@H]2CSSCC/C=C/[C@H](CC(=O)N[C@H](C(C)C)C(=O)N2)OC(=O)[C@H](C(C)C)NC1=O [Romidepsin, reference compound] | – | – | 67 | – |
| Cc1sc2c(c1C)C(c1ccc(Cl)cc1)=N[C@@H](CC(=O)OC(C)(C)C)c1nnc(C)n1-2 [JQ1 (+), reference compound] | – | – | 39 | fold change in HIV-1 gene expression over the unstimulated baseline [1]: 12.8 fold; percent of the cells treated with reactivated HIV-1 gene expression [2]: 22.8% |
| Cc1[nH]c2ccccc2c1CCNCc1ccc(/C=C/C(=O)NO)cc1 [Panabinostat, reference compound] | – | – | 57 | – |
